# Measured values taken from patent publication US20220323614A1, “KRAS-SPECIFIC CYCLIC PEPTIDES, COMPOSITIONS, AND METHODS OF USING AND MAKING” (Indi Molecular, Inc., priority 2021, published 2022).
# Where two headings read alike, the source gives them in different places. Where a SMILES comes first, the peptide text is derived from it. Bridges are numbered along the chain shown (N, C = ends). Triazole bridges read from a SMILES are 1,4-linked. Where no end group is shown, it is not given here. [ ]: non-standard residue; d: D form. The star is where a group is joined. Phe(4-guanidino) = N=C(N)Nc1ccc(C[C@H](N)C(=O)O)cc1; dLys(N3) = [N-]=[N+]=NCCCC[C@@H](N)C(=O)O; dPhe(4-Cl) = N[C@H](Cc1ccc(Cl)cc1)C(=O)O; Lys(N3) = [N-]=[N+]=NCCCC[C@H](N)C(=O)O; Morpholinoacetyl = O=C(CN1CCOCC1)*; Palmitoyl = CCCCCCCCCCCCCCCC(=O)*; dPra = C#CC[C@@H](N)C(=O)O; Pra = C#CC[C@H](N)C(=O)O
# Key:
# KRAS (G12D) = target: T1, KRAS (G12D) (Homo sapiens, UniProt P01116, G12D); experiment: Western blot of KRAS (G12D) levels in pancreatic cell lysate; assay type: cell-based; conditions: pancreatic cancer cells incubated with the peptide
# T1 construct: decreasing or depleting levels of KRAS (G12D) in pancreatic cancer cells; endogenous in cells
# Excerpt: The disclosed cyclic peptides can be used, for example, in methods for inhibiting the KRAS (G12D) oncoprotein. Such methods can include treating cancer cells having the KRAS (G12D) mutation. […] In some forms, a cyclic peptide of Formula I can be used to inhibit KRAS (G12D) expressed in any cancer cell. For example, the KRAS (G12D) oncoprotein has been identified in pancreatic, colorectal, lung, biliary tract, and ovarian cancer cells.
# [1] = tolerability of Indi-199 in PBS; assay type: in vivo, mouse; conditions: simple formulation (PBS)
# [2] = mouse pharmacokinetics of Indi-199 by IV, IP and PO; assay type: in vivo; conditions: for half-life: read-out: T½ (converted)
# Excerpt: FIG. 14 is a graph of mouse pharmacokinetics of Indi-199, an example of the disclosed cyclic peptides, by different administration routes (IV, IP, and PO).
# pERK in AsPC-1 cells = experiment: pERK levels in AsPC-1 cells, Western blot normalized to tubulin (pERK_G12D); assay type: cell-based; conditions: FIG. 3, incubated for 12 hours
# Procedure: FIG. 3 is a graph of pERK levels measured in BxPC-3 cells (first eight bars) and AsPC-1 cells (last eight bars) in the presence of different ligands or controls. For each cell type, the graph bars are, from left to right: cell only, DMSO 1.25%, BI-2852, KRpep-2d, NH2-wkyf (SEQ ID NO:46), Ac-wkyf (SEQ ID NO:46), Pal-wkyf (SEQ ID NO:46), Ac-wkyf-Lys(Pal) (SEQ ID NO:46). The levels of pERK are normalized to tubulin. The cells were grown overnight, treated with the ligands, incubated for 12 hours, lysed, gel electrophoresed, and Western blotted. Phosphorylation of ERK is a KRAS-dependent signaling target. […] BI-2852 and Krpep-2d are two positive controls developed by Boehringer Ingelheim and Takeda.
# FIG. 5 is a graph of pERK inhibition in BxPC-3 cells (first eight bars) and AsPC-1 cells (last eight bars) in the presence of the substituted ligands of FIG. 3. For each cell type, the graph bars are, from left to right: DMSO 0.5%, KRpep-2d, Ac-wkyf-Lys(Pal) (SEQ ID NO:46), Ac-w(Dab)yf-Lys(Pal), Ac-wk(4-Br-f)f-Lys(Pal), Ac-wky(4-Br-f)-Lys(Pal), Ac-wky(2-Nal)-Lys(Pal), wkyf (SEQ ID NO:46).
# Tables 15A-15E provide a summary of the activity and effects of various of the disclosed wkyf-based cyclic peptides. […] MTT_G12D used AsPc-1 at 5 μM. MTT_WT used BxPC-3 at 5 μM. pERK_G12D used AsPC-1 at 4 μM for 12 hours. pERK_WT used BxPC-3 at 4 μM for 12 hours.
# [3] = system: AsPC-1 (G12D) and BxPC-3 (WT); experiment: spheroid proliferation assay using CellTiter-Glo Assay; assay type: cell-based
# Procedure: FIGS. 2A-2B are graphs of spheroid proliferation assay of AsPC-1 (G12D) and BxPC-3 (WT) using CellTiter-Glo Assay. […] The ligand assayed was Ac-wkyf-Lys(Pal) (SEQ ID NO:46). BxPC-3 and AxPC-1 were cultured as spheroids to compare the cell viability to that observed under adherent conditions. […] These conditions more closely parallel the tumor microenvironment.
# [4] = system: AsPC1 (G12D mutant) cell line, BxPC3 (wild type), and SW 1990 (G12D mutant); conditions: confocal microscopy, Streptavidin-phycoerythrin (PE) visualization
# Procedure: A biotinylated KRAS(G12D) targeted cyclic peptide and an equivalent agent with membrane targeting capability were tested for membrane association using confocal microscopy. Binding to AsPC1 (G12D mutant) cell line, BxPC3 (wild type), and SW 1990 (G12D mutant) were compared.
# [5] = in vivo, mouse, 20 mg/kg IP, 4 mg/mL in PBS
# [6] = in vivo, mouse, 20 mg/kg IV bolus, 4 mg/mL in PBS
# [7] = in vivo, mouse, 50 mg/kg PO, 5 mg/mL in PBS
compound,measurement,setting,value
"QNGnfY (QN[Phe(4-guanidino)]Y; also: cyclic, closure not given here, D-amino acids, places not given here)",levels of KRAS (G12D),KRAS (G12D),capable of decreasing or depleting levels of KRAS (G12D)
CCCCCCCCCCCCCCCC(=O)NCCCC[C@H](NC(=O)[C@@H]1CCCCn2cc(nn2)C[C@H](NC(=O)CN2CCOCC2)C(=O)N[C@H](Cc2c[nH]c3ccccc23)C(=O)N[C@H](CCCCN)C(=O)N[C@H](Cc2ccc(O)cc2)C(=O)N[C@H](Cc2ccc(Cl)cc2)C(=O)N1)C(N)=O [Indi-199] (Morpholinoacetyl-[Pra][dW][dK][dY][dPhe(4-Cl)][Lys(N3)]K(Palmitoyl)-NH2; triazole 1-6),tolerability,[1],well tolerated
same,AUC(0-inf),[2]; [5],316 µM·h
same,AUC(0-t),[2]; [5],213 µM·h
same,Cmax,[2]; [5],12 µM
same,Tmax,[2]; [5],6 h
same,half-life,"[2]; in vivo, mouse, 20 mg/kg IP, 4 mg/mL in PBS, terminal elimination phase inadequately defined",13.4 h
same,AUC(0-inf),[2]; [6],403 µM·h
same,AUC(0-t),[2]; [6],402 µM·h
same,Cmax,[2]; [6],252 µM
same,Tmax,[2]; [6],0 h
same,clearance,[2]; [6],0.587 mL/min/kg
same,half-life,[2]; [6],2.72 h
same,Vd,"[2]; in vivo, mouse, 20 mg/kg IV bolus, 4 mg/mL in PBS, read-out: Vdss",0.0976 L/kg
same,AUC(0-t),[2]; [7],0.182 µM·h
same,Cmax,[2]; [7],0.033 µM
same,Tmax,[2]; [7],4 h
same,bioavailability,[2]; [7],0.018%
same,exposure,"[2]; iv and ip administration, FIG. 14",sustained exposure
CCCCCCCCCCCCCCCC(=O)NCCCC[C@@H](NC(=O)[C@H]1CCCCn2cc(nn2)C[C@@H](NC(C)=O)C(=O)N[C@@H](Cc2c[nH]c3ccccc23)C(=O)N[C@@H](CCCCN)C(=O)N[C@@H](Cc2ccc(O)cc2)C(=O)N[C@@H](Cc2ccccc2)C(=O)N1)C(N)=O [Ac-wkyf-Lys(Pal)] (Ac-[dPra]WKYF[dLys(N3)][dK](Palmitoyl)-NH2; triazole 1-6),pERK inhibitory effect,pERK in AsPC-1 cells,most inhibitory effects
same,selectivity under spheroid culturing,"[3]; FIG. 2B, spheroid vs adherent culture, AsPC-1 (G12D) vs BxPC-3 (WT)",selectivity persist under spheroid culturing
same,"reduction of cell viability, spheroid compared to adherent conditions","[3]; FIGS. 2A-2B, CellTiter-Glo",more effective at reducing cell viability
Biotin-wky(4-Cl-F)-Lys(Pal),membrane association,[4],demonstrated membrane association
